Experimental data: patent US10071981B2, “Method of priming plants against abiotic stress factors” (Research Foundation of The City University of New York, priority 2014, dated 2018)
“Also recorded” adds a separate entry of the source.

Legend:
Assay type in all cases: in vivo
Medicago sativa plants = experiment: Antioxidant enzyme activities (SOD and CAT) in leaves of drought-stressed plants; details: 7 d, after rewatering, vs stressed-alone plants; for SOD enzymatic activity: FIG. 16A; for CAT enzymatic activity: FIG. 16B
Protocol: Mature (42 d) Medicago sativa plants were used for the purposes of this study. These were grown in soil medium under controlled, optimal growth conditions and were then subjected to drought stress. Drought was imposed by withholding watering until drought symptoms (loss of turgour, wilting, chlorosis) were observed (6 d after stress imposition). Samples were then re-watered to observe recovery potential after 1 day (7 d). Both NOSH and NOSH-aspirin were applied at 100 μM concentration by foliar spraying at the start of stress imposition. The hybrid donors were diluted in 30% (v/v) methanol. Physiological parameters (stomatal conductance and chlorophyll fluorescence) were measured with a DT-Porometer AP4 (Delta-TDevices, Cambridge, UK) and an OptiSci OS-30p chlorophyll fluorometer (Opti-Sciences, Hudson, N.H., USA) respectively (Filippou et al., 2013). Chlorophyll fluorescence (Fv/Fm) of leaves represents the maximum photochemical efficiency of photosystem II (PSII). Cellular damage was evaluated by lipid peroxidation levels (TBARS content), nitric oxide (NO) content (nitrosative stress) and hydrogen peroxide (H2O2) content (oxidative stress) as previously described (Filippou et al., 2011; Tanou et al., 2012), while osmoprotective capacity was evaluated by proline content (ninhydrin assay) as previously described (Antoniou et al., 2013). Antioxidant enzyme activities (SOD and CAT) were measured as previously described (Filippou et al., 2014). Real-time RT-PCR gene expression analysis was carried out using a Biorad IQ5 thermocycler as previously described (Filippou et al., 2013). Relative quantification of gene expression and statistical analysis of all qRT-PCR data (pairwise fixed reallocation randomization test) were performed using the REST software according to Pfaffl et al. (2002). The actin 11 gene was used as a housekeeping reference gene. All analyses were carried out using three independent biological pools of samples as replicates (with a minimum of fifteen independent plants per pooled sample). The experimental setup is shown schematically in FIG. 8.
The enzymatic activity of two key antioxidants (SOD and CAT) were evaluated. SOD dismutates superoxide radicals to hydrogen peroxide, while CAT directly scavenges hydrogen peroxide. Both enzymes appear to be regulated in response to stress and priming agent pretreatment in a differential manner (FIG. 16). […] In any case, it should be noted that the cellular enzymatic antioxidant battery linked with ROS scavenging is very complex involving several other components (e.g. APX), isoforms in several compartments (e.g. peroxisomes, chloroplasts, mitochondria), as well as non-enzymatic antioxidants (e.g. ascorbic acid, tocopherols and glutathione).

[1] = test system: Arabidopsis thaliana Col-0 plants; experiment: Growth promotion (leaf area, ImageJ leaf series) on MS agar plates; details: 23 DAS; for true leaf 4 and 5 area: vs control samples
Protocol: An in vitro experiment was carried out in order to evaluate the potential of NOSH and NOSH-A for growth promotion in terms of leaf area increase in Arabidopsis thaliana plants. Arabidopsis thaliana Col-0 plants were used for the purposes of this study. Seeds were placed on MS agar plates containing 10 μM or 100 μM NOSH or NOSH-A (diluted in 20% (v/v) acetone) which were then incubated in the dark at 4° C. for 4 days for stratification purposes. Appropriate control plates were also prepared. The plates were then placed in a growth chamber and leaves were sampled at 23 DAS (days after sowing). Complete leaf series were examined from seven individual plants per treatment (n=7). A complete leaf series consists of all leaves from each individual plant, starting from the cotyledons and including all true leaves, harvested and examined in order of presence on the plant (from older to younger true leaf). These leaves are excised and placed on agar plates where photographs are taken and leaf areas are calculated using ImageJ software (http://imagej.nih.gov/ij/).

[2] = test system: Medicago truncatula plants; experiment: Hydrogen peroxide content in leaves of drought-stressed plants; details: 100 μM foliar spraying
Protocol: Mature (40 d) Medicago truncatula ecotype Jemalong A17 plants were used for the purposes of this study. These were grown in soil medium under controlled, optimal growth conditions and were then subjected to drought stress. Drought was imposed by withholding watering for 9 d (for detailed growth and stress conditions see Filippou et al., 2011). Both NOSH and NOSH-aspirin were applied at 100 μM concentration by foliar spraying at the start of stress imposition. The hybrid donors were diluted in 70% (v/v) and 30% (v/v) methanol, 20% (v/v) acetone or 20% (v/v) DMSO. Cellular damage was evaluated by lipid peroxidation levels (TBARS content) and hydrogen peroxide (H2O2) content as previously described (Filippou et al., 2011; Tanou et al., 2012), while osmoprotective capacity was evaluated by proline content (ninhydrin assay) as previously described (Antoniou et al., 2013). Real-time RT-PCR gene expression analysis was carried out using a Biorad IQ5 thermocycler as previously described (Filippou et al., 2013b). Relative quantification of gene expression and statistical analysis of all qRT-PCR data (pairwise fixed reallocation randomization test) were performed using the REST software according to Pfaffl et al. (2002). The actin 11 gene was used as a housekeeping reference gene. […]

[3] = test system: Medicago truncatula plants; experiment: Real-time RT-PCR gene expression in leaves of drought-stressed plants; details: pre-treated and stressed vs stressed alone plants; 30% MetOH; FIG. 7

Row | SMILES | SOD enzymatic activity (Medicago sativa plants) | CAT enzymatic activity (Medicago sativa plants) | growth induction (macroscopic analysis) ([1]; 10 μM in MS agar) | overall rosette area (total leaf area per plant), increase compared with control plants ([1]; 10 μM, n=7, FIG. 22) | true leaf 4 and 5 area ([1]; 10 μM, n=7, FIG. 22) | growth induction (macroscopic analysis) ([1]; 100 μM in MS agar) | greening of leaves ([1]; MS agar plates, FIGS. 18-21) | H2O2 levels ([2]; 30% (v/v) MetOH, vs drought-stress samples, FIG. 5) | H2O2 content ([2]; 70% (v/v) MetOH, drought 9 d, FIG. 4) | FeSOD relative gene expression [3] | P5CR relative gene expression [3] | P5CS relative gene expression [3] | cAPX relative gene expression [3]
1 | O=C(CCCO[N+](=O)[O-])Oc1ccc(-c2cc(=S)ss2)cc1 [NOSH] | significantly induced | increased CAT enzymatic activity; also recorded: significantly induced | visible growth induction | 37% | significantly higher | contrarily | increased greening | – | – | – | – | – | –
2 | O=C(CCCO[N+](=O)[O-])Oc1ccccc1C(=O)Oc1ccc(-c2cc(=S)ss2)cc1 [NOSH-A] | significantly induced | increased CAT enzymatic activity; also recorded: significantly induced | visible growth induction | – | no significant increase | contrarily | – | significantly lower H2O2 levels | significantly reversed | significant induction | significant induction | significant induction | significant suppression
